Where two headings read alike, the source gives them in different places.
How the values were obtained:
[1] = target: GST-tagged recombinant human RIPK2 (Homo sapiens (Human), UniProt O43353); assay: RIP2 Kinase Assay (ADP-Glo); format: biochemical; conditions: 25 µM ATP, MBP substrate, 30° C. 60 minutes
Experimental: GST-tagged recombinant human RIPK2(25 ng) is incubated with 5 µL of compounds (0.5% DMSO), 5 µL of MBP (0.5 µg/µl) and 5 µL of ATP (25 µM) in buffer (40 mM Tris, 7.5; 20 mM MgCl2; 0.1 mg/ml BSA; 50 µM DTT). The assay was started by incubating the reaction mixture in a 96-well plate at 30° C. for 60 minutes. After the incubation, 25 µL ADP-Glo reagent was added, and the reaction was incubated at 30° C. for 40 minutes to stop the reaction and degrade residual ATP. The ADP product was then converted to ATP by adding 50 µL per well of detection reagent. Luminescence was detected after 30 minutes room temperature incubation with the Molecular device I3X plate reader. The IC50 values were calculated from a series of percent inhibition values determined at a range of inhibitor concentration using software routines as implemented in the GraphPad Prism 7 software or SigmaPlot 13.0.

[2] = target: LRRK2 (WT) (Homo sapiens (Human), UniProt Q5S007); assay: LRRK2 kinase assay (Adapta); format: biochemical; conditions: 70 µM ATP, LRRKtide substrate
Experimental: (§1) LRRK2 and LRRK2 G2019S Kinase Assay
(§2) The LRRK2 and LRRK2 G2019S kinase assays were performed using the AdaptaTM technology in ThermoFisher Scientific. This experiment was carried out according to the supplier’s protocol. Briefly, assay conditions were as follows. The mixture of substrate (LRRKtide) and each kinase was prepared in 50 mM Tris pH 8.5, 0.01% BRIJ-35, 10 mM MgCl2, 1 mM EGTA, 0.02% NaN3. Assays were performed in the presence of 70 µM ATP and 100 µM ATP (KmATP) in LRRK2 and LRRK2 G2019S, respectively. The reaction was progressed at room temperature for 1 hour. Upon completion of kinase reaction, 5 µL of Detection Mix was added and after 60 min incubation time, the emission ratio of 665/615 nm was calculated

[3] = target: LRRK2 G2019S (Homo sapiens (Human), UniProt Q5S007, G2019S); assay: LRRK2 G2019S kinase assay (Adapta); format: biochemical; conditions: 100 µM ATP, LRRKtide substrate; read-out: LRRK2_G2019S IC50
Experimental: as §1, §2

[4] = test system: IL-6 secretion in BV-2 cell; assay: IL-6 Secretion in BV-2 Cell (L18-MDP stimulated, ELISA); format: cell-based; conditions: BV-2 mouse microglia cells, 10 µg/ml L18-MDP, 24 hr
Experimental: IL-6 Secretion in BV-2 Cell
BV-2 mouse microglia cells were kindly provided from Dr. Bae in Korea Institute of Science and Technology (KIST). BV-2 cells were thawed and suspended in Dulbecco’s modified eagle medium (DMEM) supplemented with 10% fetal bovine serum (FBS) and 1% Penicillin/Streptomycin. Cells were seeded into 96 well plates at 2X10^4 cells/well and allowed to attach for 24 hr. On the day of the experiment, various concentration of compounds were treated, and cells were stimulated with 10 µg/ml L18-MDP. After 24 hr incubation, supernatant was collected for cytokine assay.
Absorbance at 450 nm was measured using SpectraMax I3X microplate reader (Molecular Device). Values of media-only wells were subtracted and % inhibition for each compound concentration relative to the DMSO/L18-MDP-treated controls (100%) was calculated.

[5] = target: T1, His-tagged recombinant human ABL1 (Homo sapiens (Human), UniProt P00519); conditions: read-out: c-Abl IC50; 25 µM ATP, Abltide substrate, 30° C. 30-min
Experimental: (§3) ADP-Glo assay kit was purchased from Promega. Magnesium chloride (MgCl2), bovine serum albumin (BSA), ethylene glycol-bis(β-aminoethyl ether)-N,N,N′,N′-tetraacetic acid (EGTA), tween-20, 1,4-dithiothreitol (DTT) and dimethyl sulfoxide (DMSO) were purchased from Sigma-Aldrich. HEPES buffer was purchased from Gibco. ABL1 kinase and Abltide were purchased from Signalchem.
(§4) c-Abl kinase activity was measured by Promega’s ADP-Glo ® Assay. In this assay, His-tagged recombinant human ABL1 (0.25 ng/µl) is incubated with 5 µL of compounds (0.5% DMSO), 5 µL of Abltide (0.01 µg/µl) and 5 µL of ATP (25 µM) in buffer (50 mM HEPES,7.5; 10 mM MgCl2; 1 mM EGTA; 0.05% BSA; 0.01% Tween-20; 2 mM DTT.). The assay was started by incubating the reaction mixture in a 96-well plate at 30° C. for 30-min. After the incubation, 25 µL ADP-Glo reagent was added and the reaction was incubated at room temperature for 40-min to stop the reaction and degrade residual ATP. The ADP product was then converted to ATP by adding 50 µL per well of detection reagent. Luminescence was detected after 30-min room temperature incubation with the Molecular device I3X plate reader. The IC50 values were calculated from a series of percent inhibition values determined at a range of inhibitor concentration using software routines as implemented in the GraphPad Prism 7 software and Sigma Plot 13.0.

[6] = target: T1, His-tagged recombinant human ABL1; assay: biochemical
Experimental: as §3, §4

GST-tagged recombinant human RIPK2, sequence (O43353 whole entry): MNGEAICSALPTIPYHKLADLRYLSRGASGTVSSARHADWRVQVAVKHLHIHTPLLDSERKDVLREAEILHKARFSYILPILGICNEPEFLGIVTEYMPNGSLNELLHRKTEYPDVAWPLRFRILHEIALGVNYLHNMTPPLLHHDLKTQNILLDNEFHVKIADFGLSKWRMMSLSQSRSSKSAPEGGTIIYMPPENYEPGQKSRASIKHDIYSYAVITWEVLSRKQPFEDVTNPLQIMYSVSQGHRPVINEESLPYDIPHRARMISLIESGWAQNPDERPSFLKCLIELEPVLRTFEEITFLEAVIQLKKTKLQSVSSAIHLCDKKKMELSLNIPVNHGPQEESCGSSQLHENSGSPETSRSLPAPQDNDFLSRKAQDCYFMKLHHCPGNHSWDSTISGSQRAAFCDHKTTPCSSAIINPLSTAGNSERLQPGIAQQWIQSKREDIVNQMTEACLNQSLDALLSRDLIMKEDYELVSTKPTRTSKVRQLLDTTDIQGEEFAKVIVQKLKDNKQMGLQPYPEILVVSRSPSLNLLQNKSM
T1 sequence (P00519 whole entry): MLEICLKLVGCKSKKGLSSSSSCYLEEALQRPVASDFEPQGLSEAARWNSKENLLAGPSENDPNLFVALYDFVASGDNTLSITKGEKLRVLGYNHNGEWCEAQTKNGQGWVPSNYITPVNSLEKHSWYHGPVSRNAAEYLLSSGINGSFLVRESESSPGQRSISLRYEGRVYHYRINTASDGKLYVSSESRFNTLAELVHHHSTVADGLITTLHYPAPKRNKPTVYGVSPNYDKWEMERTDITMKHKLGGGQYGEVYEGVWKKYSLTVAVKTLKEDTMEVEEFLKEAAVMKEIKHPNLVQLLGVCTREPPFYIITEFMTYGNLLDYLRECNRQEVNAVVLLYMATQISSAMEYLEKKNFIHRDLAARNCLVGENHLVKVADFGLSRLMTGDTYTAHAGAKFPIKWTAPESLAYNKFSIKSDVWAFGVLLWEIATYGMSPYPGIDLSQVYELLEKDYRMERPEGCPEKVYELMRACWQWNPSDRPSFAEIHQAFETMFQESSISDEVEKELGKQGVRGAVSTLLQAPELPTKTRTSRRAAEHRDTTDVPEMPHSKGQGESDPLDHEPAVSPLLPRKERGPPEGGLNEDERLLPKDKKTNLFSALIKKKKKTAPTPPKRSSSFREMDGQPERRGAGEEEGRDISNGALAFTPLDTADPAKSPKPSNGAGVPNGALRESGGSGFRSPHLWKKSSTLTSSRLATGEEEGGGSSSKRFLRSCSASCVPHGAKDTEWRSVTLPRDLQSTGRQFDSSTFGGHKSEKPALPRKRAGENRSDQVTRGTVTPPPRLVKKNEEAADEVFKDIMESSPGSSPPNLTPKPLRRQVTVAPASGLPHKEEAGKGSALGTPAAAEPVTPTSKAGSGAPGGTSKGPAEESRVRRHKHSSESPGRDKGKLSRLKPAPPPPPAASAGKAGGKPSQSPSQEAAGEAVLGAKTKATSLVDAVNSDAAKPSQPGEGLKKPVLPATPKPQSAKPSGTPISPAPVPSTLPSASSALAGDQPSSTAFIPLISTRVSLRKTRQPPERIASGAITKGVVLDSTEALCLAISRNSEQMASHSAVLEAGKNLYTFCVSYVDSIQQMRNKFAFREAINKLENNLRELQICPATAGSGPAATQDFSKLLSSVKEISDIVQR
LRRK2 (WT), sequence (Q5S007 whole entry, species assumed): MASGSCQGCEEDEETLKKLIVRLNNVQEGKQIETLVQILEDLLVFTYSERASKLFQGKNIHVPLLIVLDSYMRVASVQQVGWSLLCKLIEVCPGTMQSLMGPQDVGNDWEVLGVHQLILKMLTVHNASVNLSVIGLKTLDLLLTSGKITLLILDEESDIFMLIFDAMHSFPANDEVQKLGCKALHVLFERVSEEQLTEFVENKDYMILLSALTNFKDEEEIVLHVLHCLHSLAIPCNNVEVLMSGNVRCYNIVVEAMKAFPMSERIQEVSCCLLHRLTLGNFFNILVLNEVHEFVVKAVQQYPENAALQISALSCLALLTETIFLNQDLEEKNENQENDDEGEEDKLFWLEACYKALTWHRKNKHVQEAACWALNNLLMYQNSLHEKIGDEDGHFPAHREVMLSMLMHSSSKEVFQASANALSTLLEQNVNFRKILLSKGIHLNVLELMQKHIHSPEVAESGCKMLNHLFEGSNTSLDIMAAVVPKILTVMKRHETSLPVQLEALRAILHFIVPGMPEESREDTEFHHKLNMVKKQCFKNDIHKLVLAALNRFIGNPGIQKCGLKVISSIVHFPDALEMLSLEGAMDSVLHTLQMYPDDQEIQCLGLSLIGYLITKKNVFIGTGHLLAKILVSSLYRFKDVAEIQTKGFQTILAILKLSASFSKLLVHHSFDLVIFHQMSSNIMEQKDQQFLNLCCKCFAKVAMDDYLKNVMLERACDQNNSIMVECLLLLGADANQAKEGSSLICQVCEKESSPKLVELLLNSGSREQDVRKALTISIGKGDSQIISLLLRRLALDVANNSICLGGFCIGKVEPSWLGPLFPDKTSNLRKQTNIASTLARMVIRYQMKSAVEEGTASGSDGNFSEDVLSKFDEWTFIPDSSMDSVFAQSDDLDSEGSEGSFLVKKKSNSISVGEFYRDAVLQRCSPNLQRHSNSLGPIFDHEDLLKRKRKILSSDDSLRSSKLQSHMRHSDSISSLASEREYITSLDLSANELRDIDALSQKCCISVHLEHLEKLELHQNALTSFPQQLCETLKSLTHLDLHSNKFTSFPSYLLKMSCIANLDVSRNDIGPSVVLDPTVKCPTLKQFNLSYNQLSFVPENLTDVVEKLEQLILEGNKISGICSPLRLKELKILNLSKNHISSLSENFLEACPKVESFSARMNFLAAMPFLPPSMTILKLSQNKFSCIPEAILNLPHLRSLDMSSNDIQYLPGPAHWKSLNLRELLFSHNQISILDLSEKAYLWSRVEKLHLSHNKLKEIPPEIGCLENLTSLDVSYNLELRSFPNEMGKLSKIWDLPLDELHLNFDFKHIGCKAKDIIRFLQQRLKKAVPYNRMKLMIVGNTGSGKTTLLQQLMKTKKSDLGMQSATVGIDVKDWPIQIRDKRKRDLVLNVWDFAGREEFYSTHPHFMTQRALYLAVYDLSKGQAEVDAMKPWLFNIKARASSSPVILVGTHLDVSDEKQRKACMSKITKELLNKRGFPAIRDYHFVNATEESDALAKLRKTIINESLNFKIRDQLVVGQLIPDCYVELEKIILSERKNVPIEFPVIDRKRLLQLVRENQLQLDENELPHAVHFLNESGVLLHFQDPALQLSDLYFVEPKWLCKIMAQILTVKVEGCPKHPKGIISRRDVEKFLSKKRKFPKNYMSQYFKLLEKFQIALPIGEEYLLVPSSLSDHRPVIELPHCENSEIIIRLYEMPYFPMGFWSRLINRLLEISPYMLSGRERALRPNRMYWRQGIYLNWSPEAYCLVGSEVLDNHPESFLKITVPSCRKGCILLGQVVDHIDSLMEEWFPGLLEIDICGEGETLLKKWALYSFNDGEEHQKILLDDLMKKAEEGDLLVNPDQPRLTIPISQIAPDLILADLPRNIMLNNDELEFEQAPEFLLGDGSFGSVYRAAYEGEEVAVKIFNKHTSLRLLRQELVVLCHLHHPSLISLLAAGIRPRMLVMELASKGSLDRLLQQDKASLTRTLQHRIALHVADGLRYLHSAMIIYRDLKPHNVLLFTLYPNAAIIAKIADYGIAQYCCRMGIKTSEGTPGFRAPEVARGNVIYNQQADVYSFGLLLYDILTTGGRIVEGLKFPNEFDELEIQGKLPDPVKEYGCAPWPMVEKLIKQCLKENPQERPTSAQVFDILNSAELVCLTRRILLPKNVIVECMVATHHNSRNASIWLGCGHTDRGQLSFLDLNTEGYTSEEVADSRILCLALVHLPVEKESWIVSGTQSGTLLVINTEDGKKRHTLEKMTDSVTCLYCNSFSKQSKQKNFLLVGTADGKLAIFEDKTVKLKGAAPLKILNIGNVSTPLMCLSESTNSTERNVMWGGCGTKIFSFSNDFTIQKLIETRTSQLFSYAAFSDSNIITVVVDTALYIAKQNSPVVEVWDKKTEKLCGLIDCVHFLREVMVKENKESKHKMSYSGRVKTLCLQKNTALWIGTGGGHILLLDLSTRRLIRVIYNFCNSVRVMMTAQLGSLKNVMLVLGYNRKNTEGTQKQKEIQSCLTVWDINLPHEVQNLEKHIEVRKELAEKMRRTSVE
LRRK2 G2019S, sequence (Q5S007 whole entry G2019S): as the sequence (Q5S007 whole entry, species assumed) above, with G2019S counted along it

Compound	IC50 [1]	IC50 [2]	IC50 [3]	IC50 [4]	IC50 [5]	IC50 [6]
O=C(Nc1cc2cc(-c3cnc4[nH]ccc4c3)ccn2n1)[C@@H]1C[C@@H]1F [Example 1, (1S,2S)-N-(5-(1 H-pyrrolo[2,3-b]pyridin-5-yl)pyrazolo[1,5-a]pyridin-2-yl)-2-fluorocyclopropane-1-carboxamide]	11 nM	55.7 nM	28 nM	187 nM	0.71 nM	
O=C(Nc1cc2cc(-c3cnc4[nH]ccc4c3Cl)ccn2n1)[C@@H]1C[C@@H]1F [Example 2, (1S,2S)-N-(5-(4-chloro-1 H-pyrrolo[2,3-b]pyridin-5-yl)pyrazolo[1,5-a]pyridin-2-yl)-2-fluorocyclopropane-1-carboxamide]	6.67 nM	36.5 nM	15 nM	68.6 nM	7.6 nM	
Cc1c(-c2ccn3nc(NC(=O)C4CC4)cc3c2)cnc2[nH]ccc12 [Example 19, N-(5-(4-methyl-1H-pyrrolo[2,3-b]pyridin-5-yl)pyrazolo[1,5-a]pyridin-2-yl)cyclopropanecarboxamide]	11.4 nM			82.9 nM		2.4 nM
Cc1c(-c2ccn3nc(NC(=O)[C@H]4C[C@@H]4F)cc3c2)cnc2[nH]ccc12 [Example 21, (1R,2S)-2-fluoro-N-(5-(4-methyl-1H-pyrrolo[2,3-b]pyridin-5-yl)pyrazolo[1,5-a]pyridin-2-yl)cyclopropane-1-carboxamide]	8.25 nM			61.4 nM	3.3 nM	
Cc1c(-c2ccn3nc(NC(=O)[C@@H]4C[C@H]4F)cc3c2)cnc2[nH]ccc12 [Example 22, (1S,2R)-2-fluoro-N-(5-(4-methyl-1H-pyrrolo[2,3-b]pyridin-5-yl)pyrazolo[1,5-a]pyridin-2-yl)cyclopropane-1-carboxamide]	15.9 nM			57.1 nM	4.2 nM	
Cc1c(-c2ccn3nc(NC(=O)[C@@H]4C[C@@H]4F)cc3c2)cnc2[nH]cc(F)c12 [Example 24, (1S,2S)-2-fluoro-N-(5-(3-fluoro-4-methyl-1H-pyrrolo[2,3-b]pyridin-5-yl)pyrazolo[1,5-a]pyridin-2-yl)cyclopropane-1-carboxamide]	14.9 nM			75.7 nM	2.9 nM	
O=C(Nc1cc2cc(-c3cnc4[nH]ccc4c3Cl)ccn2n1)[C@H]1C[C@@H]1F [Example 27, (1R,2S)-N-(5-(4-chloro-1H-pyrrolo[2,3-b]pyridin-5-yl)pyrazolo[1,5-a]pyridin-2-yl)-2-fluorocyclopropane-1-carboxamide]	15.1 nM			162 nM	12.4 nM	
O=C(Nc1cc2cc(-c3cnc4[nH]cc(Cl)c4c3Cl)ccn2n1)[C@@H]1C[C@@H]1F [Example 29, (1S,2S)-N-(5-(3,4-dichloro-1H-pyrrolo[2,3-b]pyridin-5-yl)pyrazolo[1,5-a]pyridin-2-yl)-2-fluorocyclopropane-1-carboxamide]	15.4 nM			177 nM	4.3 nM	
O=C(Nc1cc2cc(-c3cnc4[nH]cc(F)c4c3Cl)ccn2n1)[C@@H]1C[C@@H]1F [Example 30, (1S,2S)-N-(5-(4-chloro-3-fluoro-1H-pyrrolo[2,3-b]pyridin-5-yl)pyrazolo[1,5-a]pyridin-2-yl)-2-fluorocyclopropane-1-carboxamide]	10.2 nM			107 nM	7.2 nM	

Reference: patent US20230339978A1, “COMPOUNDS FOR PREVENTION OR TREATMENT OF NEURODEGENERATIVE DISORDERS” (1ST Biotherapeutics, Inc., priority 2020, published 2023)
